From patent US7792576B2, “Method of treatment for central nervous system injury” (Purdue Research Foundation, priority 2002, dated 2010)

What was measured:
[1] = test system: ascending and descending axons of transected spinal cord white matter in adult guinea pig; assay: Anterograde intracellular labeling of spinal cord white matter axons: axonal projections relative to the plane of transection (Study One); assay type: in vivo
Procedure: A laminectomy procedure exposing the dorsal aspect of the spinal cord was performed on all animals between T9 and T11. A right lateral hemisection was performed (FIG. 1) using a special cutting device, and further confirmed to be “complete” (that is, leaving no spared parenchyma) by passing a sharpened pin through the cut tissue. This operation severs the entire right side of the cord from the midline to the far right border of the spinal cord forming a rostral and caudal segment. The entire left side of the spinal cord was left intact. Immediately after transection, a marker device made of surgical stainless steel was inserted into the lesion, as previously described in Borgens et al. (1986) J. Comp. Neurol 250, 168-180 and Borgens and Bohnert (1997) Exp. Neurol. 145, 376-389. This device was left in situ for the duration of the study, and removed prior to histological processing. This procedure leaves a hole in the tissue, which accurately marks the exact plane of transaction even in chronic injuries many months old (FIGS. 1 and 2). The injection of various intracellular labels into guinea pig spinal cord white matter has been described in numerous previous publications. See, for example, Borgens et al. (1986) J Comp Neurol 250, 168-180 and Borgens et al. (1999) Journal of Neurotrauma 16, 639-57. Briefly, approximately 18 hours prior to the sacrifice of the animal, the spinal cord was exposed by surgery, and approximately […], of a fluorescently labeled dextran was injected using a Hamiliton syringe. The label (50% in distilled water; 10,000 Daltons) was injected deep into the parenchyma of white matter, approximately two vertebral segments rostral and caudal of the plane of transection (usually still visible, due to the indwelling marker device). A FITC conjugated dextran (“Flouro-emerald”) was injected rostral to the plane of transection, and a rhodamine-conjugated dextran (“Flouro-ruby”) was injected caudal to the plane of transaction. Thus, this anterograde double label technique marked both ascending fibers (mostly sensory afferent fibers) projecting towards the lesion from below it and descending axons (mainly motor fibers) projecting towards the lesion from above it). Longitudinal horizontal sections provided histological samples in which the entire extent of projection of a single axon often can be traced to fall short of, or regenerate to, around, or through the plane of transection. This procedure can sometimes provide dramatic examples of single unit axon degeneration and regeneration. However, it is not productive to attempt to count individual axons in longitudinal horizontal sections. Often axons take tortuous and curving trajectories, and would be counted more than once in individual histological samples. Additionally, sprouting and branching of fibers can lead to false counting relative to the extended growth from the stump of an individual severed fiber. Rather, the proportion of animals in which axons can be traced to terminate more than 250 μms from the plane of transaction (exactly identified by use of the indwelling marker), within 250 μms of the actual plane of transaction, and to cross the exact plane of transection into the adjacent segment of cord is compared. […] Images from an Olympus Van Ox microscope were obtained with an Optronics DEI-750 color video camera and captured to a PC with Adobe Twain 32 software. Table 1, below, provides the numbers of spinal cords that were injected with the intracellular label (N) and those that were lost to histology (LTH) for each of the three groups. The proportions of those cords in which marked fibers were traced to the four zones are given over the number of cords examined. Statistical Comparison between the groups is provided at the bottom of the graph (Fishers' exact two tailed test). […] Table 1 summarizes the results of anterograde filling of both ascending and descending tracts within the spinal cords of all animals in the Study One, of chronically injured animals. […]

[2] = test system: CTM reflex after right lateral hemisection of the spinal cord in adult guinea pig; assay: Behavioral recovery of the cutaneous trunci muscle (CTM) reflex after chronic spinal cord injury (Study One); assay type: in vivo
Description: Fully adult (approximately 400 grams (g)) female guinea pigs were used in this study (Hartley Strain). They were anesthetized with ketamine/xylyzine by conventional methods (Borgens et al. (2002) J. Exp. Biol. 205, 1-12) prior to surgery, kept warm with heat lamps after surgery, and maintained individually in pens and fed ad libidum for the duration of the investigation. Animals were euthanized at the end of the study, prior to the harvesting of spinal cords for anatomical study by an overdose of the anesthesia (see Borgens et al. (2002) J. Exp. Biol. 205, 1-12).
A laminectomy procedure exposing the dorsal aspect of the spinal cord was performed on all animals between T9 and T11. A right lateral hemisection was performed (FIG. 1) using a special cutting device, and further confirmed to be “complete” (that is, leaving no spared parenchyma) by passing a sharpened pin through the cut tissue. This operation severs the entire right side of the cord from the midline to the far right border of the spinal cord forming a rostral and caudal segment. The entire left side of the spinal cord was left intact. Immediately after transection, a marker device made of surgical stainless steel was inserted into the lesion, as previously described in Borgens et al. (1986) J. Comp. Neurol 250, 168-180 and Borgens and Bohnert (1997) Exp. Neurol. 145, 376-389. […]

[3] = test system: retinal ganglion cells; conditions: administered in vitro to retinal ganglion cells; U.S. Pat. No. 6,440,455 and Benowitz et al. 1999; cited from earlier work

SMILES | Descending fibers, Zone 4: proportion of cords ([1]; FITC-labeled descending fibers projecting into the adjacent segment of cord, over number of cords examined) | Descending fibers, Zone 3: proportion of cords ([1]; FITC-labeled descending fibers terminating at the plane of transection, over number of cords examined) | Descending fibers, Zone 1 >250: cords with labeled fibers ([1]; FITC-labeled descending fibers terminating more than 250 μm from the plane of transection, chronic SCI) | Descending fibers, Zone 2 <250: proportion of cords ([1]; FITC-labeled descending fibers within 250 μm of the plane of transection, over number of cords examined) | Ascending fibers, Zone 4: proportion of cords ([1]; rhodamine-labeled ascending fibers projecting into the adjacent segment of cord, over number of cords examined) | Ascending fibers, Zone 3: proportion of cords ([1]; rhodamine-labeled ascending fibers terminating at the plane of transection, over number of cords examined) | Ascending fibers, Zone 1 >250: cords with labeled fibers ([1]; rhodamine-labeled ascending fibers terminating more than 250 μm from the plane of transection, chronic SCI) | Ascending fibers, Zone 2 <250: proportion of cords ([1]; rhodamine-labeled ascending fibers within 250 μm of the plane of transection, over number of cords examined) | percent recovery of the CTM receptive field (mean) ([2]; at the end of the study, chronic SCI, P=0.5 between groups (Mann Whitney)) | animals that recovered some amount of CTM behavior ([2]; chronic SCI treated about 3 months after hemisection, inosine 10 mM s.c. osmotic pump 14 days, with or without OFS 4 weeks, 15 inosine, 16 inosine+OFS animals, none of 15 controls recovered) | axonal outgrowth [3]
OC[C@H]1O[C@@H](n2cnc3c(O)ncnc32)[C@H](O)[C@@H]1O [Inosine, inosine] | 1/8 | 2/8 | 8 | 7/8 | 2/12 | 7/12 | 12 | 10/12 | 23.5±3.6% | 11 animals | stimulating axonal outgrowth
Nc1nc2c(ncn2[C@@H]2O[C@H](CO)[C@@H](O)[C@H]2O)c(=O)[nH]1 [guanosine] |  |  |  |  |  |  |  |  |  |  | stimulating axonal outgrowth
